Results published in the supplement of paper PMC12463676, “Small-molecule dissolution of stress granules by redox modulation benefits ALS models” (Nature Chemical Biology, 2025).

Legend:
[1] = compound: O=[As]([O-])(O)O.[K+] [potassium arsenate]; test: thermal stability z-score vs DMSO; higher = more thermally stabilized by treatment; conditions: HeLa; arsenate concentration 1 mM
Method: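 Cellular thermal proteome profiling in HeLa cells treated with 1 mM arsenate for 1 h (DMSO pretreatment), heated to ten temperatures (37-66.3 °C). Soluble protein was quantified by TMT mass spectrometry relative to DMSO controls; the thermal stability score was transformed to a z-score; mean of n = 3 experiments.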

[2] = compound: NC(=O)CCCCC1CCSS1 [lipoamide]; test: as above; conditions: HeLa, lipoamide concentration 100 µM
Method: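 Cellular thermal proteome profiling in HeLa cells. Cells were treated with 100 µM lipoamide for 1 h, with or without 1 mM arsenate for a further 1 h, then heated to ten temperatures (37-66.3 °C), and soluble protein was quantified by TMT mass spectrometry relative to 0.1% DMSO controls. The thermal stability score (sum of log2 fold changes minus the abundance score) was transformed to a z-score; mean of n = 3 experiments.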

[3] = arsenate co-treatment: 1 mM arsenate 1 h
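Also: each temperature applied for 3 min, abundance score taken as mean log2 fold change at the two lowest temperatures, z-score obtained by mean subtraction and division by SD.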

UniProt Q9Y484, sequence (Q9Y484 whole entry): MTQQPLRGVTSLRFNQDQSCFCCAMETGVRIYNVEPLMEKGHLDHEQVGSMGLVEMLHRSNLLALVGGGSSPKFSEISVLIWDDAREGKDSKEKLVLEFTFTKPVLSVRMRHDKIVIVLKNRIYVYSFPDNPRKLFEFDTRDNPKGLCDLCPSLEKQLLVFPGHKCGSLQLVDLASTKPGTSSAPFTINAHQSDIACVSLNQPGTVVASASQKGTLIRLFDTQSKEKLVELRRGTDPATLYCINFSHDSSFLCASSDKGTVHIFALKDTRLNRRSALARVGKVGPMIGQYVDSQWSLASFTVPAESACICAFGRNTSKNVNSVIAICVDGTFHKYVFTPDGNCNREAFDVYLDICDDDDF
UniProt Q9BS40, sequence (Q9BS40 whole entry): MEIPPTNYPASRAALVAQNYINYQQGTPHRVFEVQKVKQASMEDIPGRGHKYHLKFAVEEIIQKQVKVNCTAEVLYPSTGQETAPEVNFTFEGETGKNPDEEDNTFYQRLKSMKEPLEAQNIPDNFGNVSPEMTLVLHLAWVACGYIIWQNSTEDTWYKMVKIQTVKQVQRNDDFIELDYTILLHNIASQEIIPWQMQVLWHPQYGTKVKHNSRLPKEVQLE
UniProt Q8IWL3, sequence (Q8IWL3 whole entry): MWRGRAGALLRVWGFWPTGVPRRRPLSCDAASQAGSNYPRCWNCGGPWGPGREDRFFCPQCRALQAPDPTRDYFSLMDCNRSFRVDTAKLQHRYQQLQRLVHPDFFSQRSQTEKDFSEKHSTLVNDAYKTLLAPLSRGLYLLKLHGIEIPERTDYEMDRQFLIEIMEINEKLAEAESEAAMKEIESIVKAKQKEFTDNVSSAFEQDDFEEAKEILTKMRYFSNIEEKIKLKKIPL
UniProt P08581, sequence (P08581 whole entry): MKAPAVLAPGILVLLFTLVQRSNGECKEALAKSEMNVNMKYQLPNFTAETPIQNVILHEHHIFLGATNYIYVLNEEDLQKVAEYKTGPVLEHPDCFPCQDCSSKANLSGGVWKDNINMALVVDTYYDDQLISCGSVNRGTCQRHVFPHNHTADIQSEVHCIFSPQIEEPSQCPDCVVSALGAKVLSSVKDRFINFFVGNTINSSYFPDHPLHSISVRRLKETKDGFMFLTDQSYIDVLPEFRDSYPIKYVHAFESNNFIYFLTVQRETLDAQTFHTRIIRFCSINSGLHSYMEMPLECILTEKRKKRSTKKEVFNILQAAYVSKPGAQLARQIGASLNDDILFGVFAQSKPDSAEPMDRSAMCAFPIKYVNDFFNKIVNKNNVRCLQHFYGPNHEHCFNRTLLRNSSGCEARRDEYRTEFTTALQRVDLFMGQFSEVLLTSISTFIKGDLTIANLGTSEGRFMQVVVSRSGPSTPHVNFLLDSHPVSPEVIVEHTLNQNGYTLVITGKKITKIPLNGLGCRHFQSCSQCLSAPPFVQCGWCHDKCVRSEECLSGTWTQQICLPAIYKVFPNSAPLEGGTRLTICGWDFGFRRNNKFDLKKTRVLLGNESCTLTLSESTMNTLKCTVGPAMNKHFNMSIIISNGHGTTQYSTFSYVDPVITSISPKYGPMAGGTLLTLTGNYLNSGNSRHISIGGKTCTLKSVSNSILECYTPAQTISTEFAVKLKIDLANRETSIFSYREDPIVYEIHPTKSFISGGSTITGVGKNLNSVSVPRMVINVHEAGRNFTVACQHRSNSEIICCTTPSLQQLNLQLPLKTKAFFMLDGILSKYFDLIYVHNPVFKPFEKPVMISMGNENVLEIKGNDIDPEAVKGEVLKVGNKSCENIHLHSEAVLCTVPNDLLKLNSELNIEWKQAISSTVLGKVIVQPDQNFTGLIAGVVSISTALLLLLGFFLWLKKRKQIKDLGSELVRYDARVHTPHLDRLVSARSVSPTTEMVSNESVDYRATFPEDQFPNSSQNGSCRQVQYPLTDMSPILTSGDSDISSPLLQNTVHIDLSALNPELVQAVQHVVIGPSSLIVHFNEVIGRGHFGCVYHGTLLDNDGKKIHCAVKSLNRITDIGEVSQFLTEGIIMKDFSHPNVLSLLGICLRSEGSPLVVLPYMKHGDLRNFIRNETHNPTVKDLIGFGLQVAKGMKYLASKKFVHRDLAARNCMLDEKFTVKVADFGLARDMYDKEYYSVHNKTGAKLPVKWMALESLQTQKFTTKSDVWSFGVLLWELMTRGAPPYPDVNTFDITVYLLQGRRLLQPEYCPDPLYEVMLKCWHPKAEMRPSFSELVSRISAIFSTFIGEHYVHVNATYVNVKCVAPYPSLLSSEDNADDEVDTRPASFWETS
UniProt Q9Y512, sequence (Q9Y512 whole entry): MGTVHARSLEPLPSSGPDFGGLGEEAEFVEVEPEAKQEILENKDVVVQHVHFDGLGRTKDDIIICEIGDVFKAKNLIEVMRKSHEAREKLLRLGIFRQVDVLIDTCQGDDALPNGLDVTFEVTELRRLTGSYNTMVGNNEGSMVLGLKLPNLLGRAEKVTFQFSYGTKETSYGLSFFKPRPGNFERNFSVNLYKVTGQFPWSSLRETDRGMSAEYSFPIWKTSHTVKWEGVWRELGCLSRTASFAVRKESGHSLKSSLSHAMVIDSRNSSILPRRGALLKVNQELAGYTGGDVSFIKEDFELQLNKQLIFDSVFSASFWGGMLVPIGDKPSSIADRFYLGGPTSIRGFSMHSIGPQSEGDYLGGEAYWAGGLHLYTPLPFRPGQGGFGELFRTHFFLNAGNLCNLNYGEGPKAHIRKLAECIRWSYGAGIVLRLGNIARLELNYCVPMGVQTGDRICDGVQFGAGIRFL
UniProt P06748, sequence (P06748 whole entry): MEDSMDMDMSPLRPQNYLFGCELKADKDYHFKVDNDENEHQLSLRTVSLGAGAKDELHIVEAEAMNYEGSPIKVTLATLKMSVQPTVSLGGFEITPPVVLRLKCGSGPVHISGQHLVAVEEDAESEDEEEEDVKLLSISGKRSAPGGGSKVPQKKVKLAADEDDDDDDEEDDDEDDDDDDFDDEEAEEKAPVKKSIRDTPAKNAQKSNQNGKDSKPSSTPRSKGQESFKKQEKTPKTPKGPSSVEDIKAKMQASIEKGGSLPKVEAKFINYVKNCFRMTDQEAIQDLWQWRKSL
UniProt P26599, sequence (P26599 whole entry): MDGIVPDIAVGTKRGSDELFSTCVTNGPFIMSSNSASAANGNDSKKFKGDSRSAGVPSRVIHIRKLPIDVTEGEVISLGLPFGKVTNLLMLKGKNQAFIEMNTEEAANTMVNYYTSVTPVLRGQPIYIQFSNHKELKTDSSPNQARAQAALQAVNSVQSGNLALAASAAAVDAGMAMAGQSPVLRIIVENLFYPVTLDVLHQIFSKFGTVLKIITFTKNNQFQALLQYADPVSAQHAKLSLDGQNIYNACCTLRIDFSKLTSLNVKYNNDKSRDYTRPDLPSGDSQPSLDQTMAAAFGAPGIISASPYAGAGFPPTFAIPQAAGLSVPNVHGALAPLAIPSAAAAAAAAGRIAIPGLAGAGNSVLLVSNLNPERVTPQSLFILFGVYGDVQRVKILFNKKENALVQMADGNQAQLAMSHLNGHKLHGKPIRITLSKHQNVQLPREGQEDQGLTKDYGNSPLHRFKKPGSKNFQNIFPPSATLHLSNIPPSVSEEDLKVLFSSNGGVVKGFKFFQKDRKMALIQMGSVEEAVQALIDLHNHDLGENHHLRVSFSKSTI
UniProt P02786, sequence (P02786 whole entry, looked up): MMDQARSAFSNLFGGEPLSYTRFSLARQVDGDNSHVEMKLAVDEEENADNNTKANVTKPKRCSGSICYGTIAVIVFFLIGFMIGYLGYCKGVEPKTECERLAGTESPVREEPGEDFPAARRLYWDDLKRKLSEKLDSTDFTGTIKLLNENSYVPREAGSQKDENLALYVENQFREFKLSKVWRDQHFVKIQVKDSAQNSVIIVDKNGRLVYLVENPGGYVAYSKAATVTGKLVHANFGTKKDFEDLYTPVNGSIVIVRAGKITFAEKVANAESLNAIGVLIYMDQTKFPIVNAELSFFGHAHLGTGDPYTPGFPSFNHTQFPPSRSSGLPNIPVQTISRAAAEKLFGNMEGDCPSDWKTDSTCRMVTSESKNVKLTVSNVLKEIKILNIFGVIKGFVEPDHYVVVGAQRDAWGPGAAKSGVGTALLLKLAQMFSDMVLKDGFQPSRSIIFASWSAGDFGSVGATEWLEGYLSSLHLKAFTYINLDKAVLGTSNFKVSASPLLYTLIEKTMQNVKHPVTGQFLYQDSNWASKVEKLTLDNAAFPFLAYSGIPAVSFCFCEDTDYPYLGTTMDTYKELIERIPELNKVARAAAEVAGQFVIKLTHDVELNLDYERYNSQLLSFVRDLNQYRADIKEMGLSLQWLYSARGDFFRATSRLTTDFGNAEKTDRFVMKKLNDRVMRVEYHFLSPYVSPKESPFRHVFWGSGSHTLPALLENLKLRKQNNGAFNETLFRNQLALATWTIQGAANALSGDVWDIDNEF
UniProt Q9BZK7, sequence (Q9BZK7 whole entry): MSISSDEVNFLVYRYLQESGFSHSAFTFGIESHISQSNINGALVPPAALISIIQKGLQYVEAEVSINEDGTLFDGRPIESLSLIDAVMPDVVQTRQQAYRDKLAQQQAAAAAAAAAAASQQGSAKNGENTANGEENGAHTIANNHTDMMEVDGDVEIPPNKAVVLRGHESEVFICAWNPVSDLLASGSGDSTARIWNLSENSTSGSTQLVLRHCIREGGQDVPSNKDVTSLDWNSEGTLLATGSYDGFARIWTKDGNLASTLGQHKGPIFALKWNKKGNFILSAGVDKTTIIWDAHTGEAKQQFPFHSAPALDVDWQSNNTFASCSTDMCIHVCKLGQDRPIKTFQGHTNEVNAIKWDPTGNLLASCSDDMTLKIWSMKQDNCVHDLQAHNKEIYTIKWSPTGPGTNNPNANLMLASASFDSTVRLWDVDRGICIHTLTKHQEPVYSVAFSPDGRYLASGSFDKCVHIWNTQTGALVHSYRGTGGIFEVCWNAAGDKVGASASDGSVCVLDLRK
UniProt Q9NR31, sequence (Q9NR31 whole entry): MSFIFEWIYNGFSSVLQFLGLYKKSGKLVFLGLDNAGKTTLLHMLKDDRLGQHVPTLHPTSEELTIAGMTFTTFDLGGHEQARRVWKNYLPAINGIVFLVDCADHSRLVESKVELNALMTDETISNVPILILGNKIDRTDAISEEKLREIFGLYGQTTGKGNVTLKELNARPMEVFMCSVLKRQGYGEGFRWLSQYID

Target	thermal stability z-score [1]	thermal stability z-score [2, 3]	thermal stability z-score ([2]; arsenate co-treatment: none)
DPH7 (UniProt Q9BTV6)	0.093	-1.62	0.272
BCAT2 (UniProt O15382)	1.1	0.516	0.0921
FRA10AC1 (UniProt Q70Z53)	0.108	0.081	0.0654
PTBP1 (UniProt P26599)	0.184	1.1	1.82
SURF6 (UniProt O75683)	-2.85	-0.283	-1.48
PGM1 (UniProt P36871)	-0.103	-0.181	-0.205
THUMPD1 (UniProt Q9NXG2)	3.08	0.166	0.155
PTPRJ (UniProt Q12913)	-0.764	1.03	-0.0729
ATL2 (UniProt Q8NHH9)	0.103	-0.223	-0.0585
CXORF56 (UniProt Q9H5V9)	-3.91	0.162	-0.0486
CD3EAP (UniProt O15446)	-3.13	0.354	-0.286
TTI1 (UniProt O43156)	1.78	0.86	1.21
NPM1 (UniProt P06748)	-1.07	1.35	0.674
CHCHD3 (UniProt Q9NX63)	0.417	0.334	0.581
SART3 (UniProt Q15020)	-1.04	-0.326	0.203
SEMA3C (UniProt Q99985)	-0.147	-0.0185	-0.402
ABCE1 (UniProt P61221)	-0.471	0.0869	0.0991
MTX2 (UniProt O75431)	0.0221	-0.388	-0.267
HSCB (UniProt Q8IWL3)	0.175	0.0143	0.667
TMEM181 (UniProt Q9P2C4)	0.205	0.128	0.201
LXN (UniProt Q9BS40)	0.992	0.274	0.0402
PSMC4 (UniProt P43686)	-0.369	-0.725	-0.18
SAMM50 (UniProt Q9Y512)	1.08	0.182	0.601
SP100 (UniProt P23497)	4.5	3.43	0.96
MCM4 (UniProt P33991)	-0.472	-0.472	-0.0478
KIF2A (UniProt O00139)	-0.0587	-0.584	-0.0403
TFRC (UniProt P02786)	0.144	0.193	0.202
MRPL53 (UniProt Q96EL3)	0.0397	0.75	-0.432

Target	thermal stability z-score [1]	thermal stability z-score [2, 3]	thermal stability z-score ([2]; arsenate co-treatment: none)
POLR2H (UniProt P52434)	-0.373	0.98	1.03
ARFIP2 (UniProt P53365)	0.108	-0.0772	-0.0355
MET (UniProt P08581)	0.073	-0.338	-0.235
SAR1A (UniProt Q9NR31)	0.248	0.174	0.266
CNNM3 (UniProt Q8NE01)	-0.561	-0.728	0.192
ZNF579 (UniProt Q8NAF0)	0.155	-0.34	-0.434
PSEN1 (UniProt P49768)	-2.52	1.23	-2
WDR45 (UniProt Q9Y484)	0.292	-0.0374	0.11
ZNF668 (UniProt Q96K58)	-0.073	0.0589	-0.155
PRKAG1 (UniProt P54619)	0.942	0.174	0.0278
TBL1XR1 (UniProt Q9BZK7)	-0.746	1.11	0.307
CXADR (UniProt P78310)	0.0224	0.11	0.273
CEPT1 (UniProt Q9Y6K0)	0.959	0.685	0.4
PROCR (UniProt Q9UNN8)	1.04	1.19	0.359
P1394_HsINTS1|INTS1	0.145	-0.0499	-0.0292
MYO5A (UniProt Q9Y4I1)	0.118	0.351	0.43
C3ORF58 (UniProt Q8NDZ4)	0.287	-0.093	-0.000578
SRGAP2 (UniProt O75044)	0.309	-0.272	-0.287
NUBP2 (UniProt Q9Y5Y2)	-0.461	0.35	-0.855
CDK5RAP2 (UniProt Q96SN8)	-0.112	-0.149	-0.131
AHNAK (UniProt Q09666)	2.03	1.35	1.69
SLC25A19 (UniProt Q9HC21)	-0.374	-0.0932	0.281
INPP1 (UniProt P49441)	-1.9	-1.52	-1.35
PHLDB2 (UniProt Q86SQ0)	-0.277	-1.07	-0.89
CCDC59 (UniProt Q9P031)	1.06	-0.52	-0.816
SLC9A6 (UniProt Q92581)	-0.165	-0.145	-0.0692
PRPF6 (UniProt O94906)	-0.171	-0.136	-0.0563
